Assay [1] concerns the target T1, NS3/NS4A-2 (full-length HCV NS3 protease complexed with NS4A-2) (Hepatitis C virus genotype 1a, UniProt P27958).
T1 construct: Recombinant E. coli or Baculovirus full-length NS3; host or cells: E. coli or baculovirus (insect cells)
Put plainly: NS3 inhibition assay (NS3-NS4 protease assay). The format is biochemical. The settings on record: recombinant full-length NS3/NS4A-2, RETS1 substrate, kinetic fluorescence read; read-out: NS3-NS4 IC50. In a few lines:
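Full-length NS3 (E. coli-expressed at 2 nM or baculovirus-expressed at 3 nM) precomplexed with excess NS4A-2 peptide and preincubated with compound (top concentration 50 μM) for 10 min at room temperature. RETS1 substrate added; fluorescence read kinetically for 30 min (ex 335/em 495 nm). IC50 converted to Ki using Km 2.03 μM (E. coli) or 1.74 μM (baculovirus).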

The test system of assay [2] is HCV sub-genomic replicon (1377/NS3-3') in HuH-7 hepatoma cells (GS4.3). Put plainly: Quantitation by ELISA of NPTII in the HCV sub-genomic replicon, GS4.3. The format is cell-based, hepatitis C virus (HCV). The settings on record: Hepatitis C virus, Huh-7; GS4.3 cells, 72 h incubation, NPTII ELISA; read-out: Replicon EC50. In a few lines:
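GS4.3 cells (HuH-7 carrying HCV 1377/NS3-3′ replicon) treated 72 h at 37 °C with compound at 3-fold dilutions from 10 μM to 56 pM final, 1% DMSO, without G418. NPTII in lysates quantified by ELISA (450 nm). Signal expressed as percent of DMSO control; EC50 by 4-parameter fit.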
(ELISA stands for enzyme-linked immunosorbent assay.)

Where only a bound is given, the exact number is not on record here.

T1 sequence (P27958 1027-1657, one chain of several): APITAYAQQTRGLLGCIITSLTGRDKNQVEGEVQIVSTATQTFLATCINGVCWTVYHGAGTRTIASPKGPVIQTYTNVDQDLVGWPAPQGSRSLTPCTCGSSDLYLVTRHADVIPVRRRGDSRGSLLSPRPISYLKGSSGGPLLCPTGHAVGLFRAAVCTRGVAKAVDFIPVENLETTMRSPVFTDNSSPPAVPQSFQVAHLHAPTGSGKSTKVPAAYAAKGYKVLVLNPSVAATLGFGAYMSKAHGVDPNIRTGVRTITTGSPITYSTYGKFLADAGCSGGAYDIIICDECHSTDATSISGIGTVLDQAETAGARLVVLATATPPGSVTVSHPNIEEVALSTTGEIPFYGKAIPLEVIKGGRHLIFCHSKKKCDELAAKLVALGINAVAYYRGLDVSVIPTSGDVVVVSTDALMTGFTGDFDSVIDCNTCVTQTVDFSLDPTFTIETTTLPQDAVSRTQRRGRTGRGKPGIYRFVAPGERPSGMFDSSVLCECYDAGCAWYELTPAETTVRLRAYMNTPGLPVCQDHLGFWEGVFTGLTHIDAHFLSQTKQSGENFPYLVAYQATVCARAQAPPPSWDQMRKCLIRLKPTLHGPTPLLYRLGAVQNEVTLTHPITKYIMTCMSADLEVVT

Regarding `CC[C@@H]1C[C@]1(NC(=O)[C@@H]1C[C@@H](OC(=O)N2Cc3cccc(Cl)c3C2)CN1C(=O)[C@@H](Nc1cccc(C(C)(C)C)c1)C(C)C)C(=O)NS(=O)(=O)C1CC1` [Compound 46, [(3R,5S)-1-((S)-2-(3-tert-butylphenylamino)-3-methylbutanoyl)-5-((1R,2R)-1-(cyclopropylsulfonylcarbamoyl)-2-ethylcyclopropylcarbamoyl)pyrrolidin-3-yl]4-chloroisoindoline-2-carboxylate], the IC50 (in general, the concentration at which inhibition is half-maximal) in assay [1] was less than 100 nM. Moreover, the EC50 (usually the concentration needed to bring the measured effect to its halfway point) in assay [2] was less than 100 nM.

`C=C[C@@H]1C[C@]1(NC(=O)[C@@H]1Cc2cc(Oc3cccc(Cl)c3)ccc2CN1C(=O)[C@@H](Nc1ccc(F)cc1)C(C)(C)C)C(=O)NS(=O)(=O)C1CC1` [Compound 11, (S)-6-(3-chlorophenoxy)-N-((1R,2S)-1-(cyclopropylsulfonylcarbamoyl)-2-vinylcyclopropyl)-2-((S)-2-(4-fluorophenylamino)-3,3-dimethylbutanoyl)-1,2,3,4-tetrahydroisoquinoline-3-carboxamide]: in assay [1], the IC50 was less than 100 nM. Besides, the EC50 in assay [2] lay in the range of 10000 to 50000 nM.

Take `C=C[C@@H]1C[C@]1(NC(=O)[C@@H]1C[C@@H](OC(=O)N2Cc3cccc(F)c3C2)CN1C(=O)[C@@H](Nc1cncc(C(F)(F)F)c1)C(C)C)C(=O)NS(=O)(=O)C1CC1` [Compound 44, [(3R,5S)-5-((1R,2S)-1-(cyclopropylsulfonylcarbamoyl)-2-vinylcyclopropylcarbamoyl)-1-((S)-3-methyl-2-(5-(trifluoromethyl)pyridin-3-ylamino)butanoyl)pyrrolidin-3-yl]4-fluoroisoindoline-2-carboxylate]: in assay [1], the half-inhibitory concentration (IC50) is less than 100 nM. Besides, in assay [2], the EC50 was 100 to 1000 nM.

The record behind these values is patent publication US7932277B2, “Peptide inhibitors of hepatitis C virus replication” (InterMune, Inc., priority 2007, dated 2011).
